Assay results as given in patent US20020102688A1, “Methods and products for the synthesis of oligosaccharide structures on glycoproteins, glycolipids, or as free molecules, and for the isolation of cloned genetic sequences that determine these structures” (The Regents of the University of Michigan, priority 1990, published 2002).
Where two headings read alike, the source gives them in different places.

Experiments:
[1] = target: T1, recombinant human (α1,2)fucosyltransferase (Homo sapiens, UniProt P19526); assay: Apparent Michaelis constants of recombinant (α1,2)fucosyltransferase expressed in COS-1 cells; assay type: biochemical
T1 construct: expressed in transfected cells; host or cells: COS-1 cells, transient DEAE-dextran transfection, cell extracts
T1 sequence (P19526 1-365): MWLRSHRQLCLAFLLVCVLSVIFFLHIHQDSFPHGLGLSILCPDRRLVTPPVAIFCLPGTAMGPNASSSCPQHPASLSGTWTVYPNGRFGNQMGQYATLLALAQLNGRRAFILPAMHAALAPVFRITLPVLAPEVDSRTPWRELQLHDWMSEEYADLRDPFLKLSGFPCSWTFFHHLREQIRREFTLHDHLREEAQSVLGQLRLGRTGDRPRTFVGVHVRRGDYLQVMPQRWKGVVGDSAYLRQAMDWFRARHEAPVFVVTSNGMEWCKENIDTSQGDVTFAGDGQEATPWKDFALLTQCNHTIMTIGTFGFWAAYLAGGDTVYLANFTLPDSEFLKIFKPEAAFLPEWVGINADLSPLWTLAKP
Protocol: (§1) Fucosyltransferase assays were performed by a modification of the procedure reported by Chester et al. (Chester et al, Eur. J. Biochem., 69: 583-593, 1976). The standard assay contained GDP-[^14]fucose (3 μM) phenyl-β-D-galactoside (25 mM), ATP (5 mm) and the enzyme solution (1-10 μl) in 20 μl of 25 mM sodium phosphate buffer, pH 6.1. Based upon preliminary assays, amounts of added enzyme activities were adjusted to ensure that reactions were linear throughout the period of incubation (4 h for fractionated serum, 2 h for each of the other enzyme preparations). Under these conditions, less than 15% of the substrate was consumed during the incubation period. […] The final pH value of each reaction was determined with a micro pH probe. […] The concentration of GDP-fucose in this stock solution was calculated from the UV absorbance at 254 nm of an aliquot diluted in water. […] The supernatant contained virtually 100% of the radiolabelled product; this was collected, and an aliquot was used for separation and quantitation of the fucosylated product using the hydrophobic interaction chromatography method described below. […] This background acceptor “activity” was always less than 3% of the radioactivity incorporated into the phenyl-β-D-galactoside acceptor. […] Intercepts were calculated by the least squares estimation method. […]

[2] = target: T2, blood group H (α1,2)fucosyltransferase (Homo sapiens, UniProt P19526); assay: Apparent Km for the blood group H (α1,2)fucosyltransferase; assay type: biochemical; details: determined by the inventor; read-out: apparent Km for phenyl-β-D-galactoside
T2 sequence (P19526 1-365): T1 sequence (P19526 1-365)
Protocol: Serum was prepared from freshly drawn blood obtained from a non-Secretor individual. The blood was clotted in a glass tube at 37° C. for 1 h and was immediately fractionated by ammonium sulfate precipitation exactly as described. The 20%-40% ammonium sulfate fraction was dialyzed against 2 changes of 4 liters of water (8 h each) at 4° C. Assay of (α1,2)fucosyltransferase was done immediately. Alternatively, the fractionated serum was aliquoted and stored at −20° C. until use.
Fucosyltransferase assays were performed by a modification of the procedure reported by Chester et al. (Chester et al, Eur. J. Biochem., 69: 583-593, 1976). […] The final pH value of each reaction was determined with a micro pH probe. […] The concentration of GDP-fucose in this stock solution was calculated from the UV absorbance at 254 nm of an aliquot diluted in water. […] The supernatant contained virtually 100% of the radiolabelled product; this was collected, and an aliquot was used for separation and quantitation of the fucosylated product using the hydrophobic interaction chromatography method described below. […] This background acceptor “activity” was always less than 3% of the radioactivity incorporated into the phenyl-β-D-galactoside acceptor. […] Intercepts were calculated by the least squares estimation method.

[3] = target: T3, (α1,2)fucosyltransferase found in human milk (Se locus) (Homo sapiens, UniProt Q10981); assay: Apparent Km for the human milk (α1,2)fucosyltransferase; assay type: biochemical; details: human milk enzyme; read-out: apparent Km for phenyl-β-D-galactoside
T3 sequence (Q10981 29-343 limits assumed): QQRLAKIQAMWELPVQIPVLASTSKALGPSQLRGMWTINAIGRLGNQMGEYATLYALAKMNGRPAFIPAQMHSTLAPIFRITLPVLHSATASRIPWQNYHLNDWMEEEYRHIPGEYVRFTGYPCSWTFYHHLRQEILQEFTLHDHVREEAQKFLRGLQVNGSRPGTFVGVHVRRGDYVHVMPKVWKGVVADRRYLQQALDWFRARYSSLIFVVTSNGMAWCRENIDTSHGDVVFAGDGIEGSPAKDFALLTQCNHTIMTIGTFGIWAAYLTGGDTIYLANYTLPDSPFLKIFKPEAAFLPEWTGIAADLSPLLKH
Protocol: (α1,2)Fucosyltransferase was isolated from human milk by published procedures. Briefly, 300 ml of milk from a Se-positive donor was defatted by centrifugation and was extensively dialyzed against 20 MM sodium cacodylate, pH 6.0. This was applied to a column (2.6×115 cm) of sulfopropyl-Sephadex equilibrated in 20 mM cacodylate, pH 6.0. The column was then washed with 1 liter of 20 mM cacodylate, pH 6.0, and was eluted with a linear gradient made from 1.5 liter each of 20 mM cacodylate, pH 6.0, and 500 mM NaCl in 20 mM cacodylate, pH 6.0. Fractions (13 ml) were collected and assayed for (α1,2)fucosyltransferase activity using phenyl-β-D-galactoside acceptor as described below. […]
Fucosyltransferase assays were performed by a modification of the procedure reported by Chester et al. (Chester et al, Eur. J. Biochem., 69: 583-593, 1976). […] The final pH value of each reaction was determined with a micro pH probe. […] The concentration of GDP-fucose in this stock solution was calculated from the UV absorbance at 254 nm of an aliquot diluted in water. […] The supernatant contained virtually 100% of the radiolabelled product; this was collected, and an aliquot was used for separation and quantitation of the fucosylated product using the hydrophobic interaction chromatography method described below. […] Intercepts were calculated by the least squares estimation method.

[4] = system: Griffonia simplicifolia isolectin I B4 (GS I-B4); assay: Hapten inhibition of FITC-GS I-B4 staining of COS-1 cells transfected with pCDM7-αGT; assay type: binding; details: 50 mM raffinose
Protocol: COS-1 cells transfected with plasmid DNAs were harvested 48-72-hr after transfection. These were stained with either fluorescein isothiocyanate-conjugated GS I-B4 at 10 μg per ml in staining media or with fluorescein isothiocyanate-conjugated GS I-B4 that had been previously incubated with 50 mM raffinose. Cells were then subjected to analysis by fluorescence-activated cell sorting as described above.

[5] = system: F9 teratocarcinoma cells; assay: (α1-3)GT specific activity in retinoic acid-differentiated F9 cells; assay type: cell-based, mouse
[6] = system: nucleotide pyrophosphatase activity; assay: Nucleotide pyrophosphatase activity in mock fucosyltransferase assays; assay type: biochemical; details: 5 mM in standard assay cocktail
Protocol: ATP (5 mM) was therefore included in all assays to inhibit nucleotide pyrophosphatase activity. […] Each enzyme source was incubated for 1 to 4 h at 37° C. in 20 μl of standard assay cocktail, but in the absence of phenyl-β-D-galactoside. After the reactions were terminated, an aliquot of each was spotted on Whatman No. 3MM, fractionated by descending paper chromatography for 20 h in solvent B, and radioactivity was determined as described above. Authentic GDP-[^14C]fucose, [^14C]fucose-1-phosphate, and L-[^14C]fucose standards were chromatographed in parallel. This system separates GDP-fucose, fucose-1-phosphate, and fucose. It therefore allows quantitation of the amount of GDP-[^14C]fucose remaining at the end of the incubation, and thus provides an estimate of pyrophosphatase activity. Under the standard assay conditions, more than 97% of the GDP-[^14C]fucose initially present in each mock reaction remained unhydrolyzed and available for transglycosylation.

[7] = system: (α1,2)fucosyltransferase; assay: (α1,2)Fucosyltransferase assay, substrate and effector tests; assay type: biochemical
Protocol: as §1

[8] = system: α-fucosidase activity; assay: α-Fucosidase activity in enzyme preparations; assay type: biochemical; details: 10 mM; fractionated human serum and mouse intestinal mucosa extracts
Protocol: Each enzyme preparation was also tested for α-fucosidase activity that could hydrolyze the [^14C]fucosylphenyl-β-D-galactoside product and prevent accurate determination of (α1,2)fucosyltransferase activity. Enzyme preparations were incubated with purified [^14C]fucosylphenyl-β-D-galactoside (7000 cpm, 10 pmol) in fucosyltransferase assay buffer, but in the absence of added GDP-[^14C]fucose or phenyl-β-D-galactoside. These reactions were incubated at 37° C. for various times, and were then fractionated by the Sep-Pak method to determine the amount of remaining [^14C]fucosylphenyl-β-D-galactoside. Fractionated human serum and mouse intestinal mucosa extracts each contained significant α-fucosidase activity. […] Therefore 10 mM L-fucose was included when assaying these enzyme sources. Significant amounts of α-fucosidase activity were not detected in any of the other cell extracts; product hydrolysis never exceeded 1%/h under the standard assay conditions.

[9] = system: monoclonal anti-H antibody; assay: Hapten inhibition of anti-H antibody binding to mH1-12 cells (indirect immunofluorescence); parameters: species or system mouse; details: antibody preincubated with hapten, 20 mM
Protocol: Immunofluoroscence was performed on cells plated on 8-well tissue culture chamber slides (Lab-Tek). Cells were plated at a density of 5×10^4/well 24 h prior to analysis. Anti-H and anti-A primary antibodies were diluted in PBS containing bovine serum albumin at 2 mg/ml, to a final concentration of 10 μg/ml. Cell-bound primary antibodies were detected with FITC-conjugated goat anti-mouse IgM, diluted to 40 μg/ml in PBS containing 2 mg/ml bovine serum albumin.
Hapten Inhibition—Plated cells were washed twice with PBS, and were incubated for 30 min at 4° C. with 100 μl of diluted anti-H antibody, or with 100 μl of diluted antibody containing different oligosaccharide haptens, each at a concentration of 20 mM. The chambers were then washed twice, and 100 μl of FITC-conjugated goat anti-mouse IgM was added. After 30 min at 4° C., the chambers were washed three times with PBS, and the cells were fixed at room temperature for 10 min in 3.7% formaldehyde in PBS. The cells were washed twice with PBS, the chambers were removed, and the slide was mounted in PBS containing 25% glycerol. Cells were examined by fluorescence microscopy using a Zeiss Axiophot photomicroscope equipped with fluorescence epiillumination.

## OC[C@H]1O[C@@H](Oc2ccccc2)[C@H](O)[C@@H](O)[C@H]1O [phenyl-β-D-galactoside]
[1]; COS-1 cells transfected with pCDM7-α(1,2)FT, GDP-[14C]fucose 3 μM, read-out: apparent Km for phenyl-β-D-galactoside
  Km: 2400 µM
[2]
  Km: 3100 µM
[3]
  Km: 15100 µM

## OC[C@H]1O[C@H](OC[C@H]2O[C@H](O[C@]3(CO)O[C@H](CO)[C@@H](O)[C@@H]3O)[C@H](O)[C@@H](O)[C@@H]2O)[C@H](O)[C@@H](O)[C@H]1O [raffinose]
[4]
  inhibition of GS I-B4 staining by hapten: inhibited

## CC1=C(/C=C/C(C)=C/C=C/C(C)=C/C(=O)O)C(C)(C)CCC1 [retinoic acid]
[5]
  specific activity of (α1-3)GT versus untreated F9 cells: approximately 4 fold

## Nc1ncnc2c1ncn2[C@@H]1O[C@H](COP(=O)(O)OP(=O)(O)OP(=O)(O)O)[C@@H](O)[C@H]1O [ATP]
[6]
  inhibition of nucleotide pyrophosphatase activity: Effective inhibition

## C[C@@H]1O[C@H](OP(=O)(O)OP(=O)(O)OC[C@H]2O[C@@H](n3cnc4c(=O)[nH]c(N)nc43)[C@H](O)[C@@H]2O)[C@@H](O)[C@H](O)[C@@H]1O [GDP-fucose]
[1]; COS-1 cells transfected with pH3.4, phenyl-β-D-galactoside 25 mM, read-out: apparent Km for GDP-fucose
  Km: 17.5 µM

## C[C@@H]1O[C@H](OP(=O)(O)OP(=O)(O)OC[C@H]2O[C@@H](n3cnc4c(=O)[nH]c(N)nc43)[C@H](O)[C@@H]2O)[C@@H](O)[C@H](O)[C@@H]1O [GDP-β-L-fucose]
[7]
  activity as a substrate for (α1,2)fucosyltransferase: inactive

## C[C@H](O)[C@@H](O)[C@@H](O)[C@H](O)C=O [L-fucose]
[7]; 10 mM, reconstruction experiments with cell extracts
  effect on (α1,2)fucosyltransferase activity: does not alter the activity
[8]
  inhibition of α-fucosidase activity: effectively inhibited
[9]
  inhibition of anti-H antibody binding to mH1-12 cells by hapten: does not inhibit
